In patent publication US20260241043A1, “Carrier Peptide Fragment and Use Thereof” (TOAGOSEI CO., LTD., priority 2022, published 2026):
Primed or numbered codes have the meaning given here. FAM″ = C-terminal FAM dye

What follows are substances tested on NSC-34 cells (assay: Evaluation on cell membrane permeability by flow cytometry). Conditions: 10 μM additive, 0.5% DMSO, 20 hours incubation at 37° C., fluorescence detector FL2.
Assay type: cell-based, mouse
Protocol: As the eukaryotic cells, NSC-34 cells (mouse motor neuron-like hybrid cell line) were used and the cell membrane permeability of the constructs 1 to 3 was analyzed. In Examples 1 to 3, the prepared samples 1 to 3 were used, respectively, and in Example 4, a FAM solution was used.
The NSC-34 cells were cultured in 10% fetal bovine serum (FBS)-containing Dulbecco's modified Eagle's medium (DMEM (Cat No. 044-29765, manufactured by FUJIFILM Wako Pure Chemical Corporation)), which is a normal culture medium.
The NSC-34 cells that adhered to a culture plate were cleaned with PBS and then, a 0.25%-trypsin/EDTA solution was added thereto, and incubation was performed for three minutes at 37° C. After the incubation, the aforementioned 10% FBS-containing DMEM was added to deactivate trypsin and then, five-minute centrifugal separation was performed at 150×g to precipitate the cells. After the supernatant generated by the centrifugal separation was removed, the 10% FBS-containing DMEM was added to the precipitate (cell pellet) to prepare a cell suspension of about 2× 10^5 cells/mL. The cell suspension was added by 1 mL to a well of a commercially available six-hole (well) plate (manufactured by AGC TECHNO GLASS Co., Ltd.) so as to seed the cell (about 2× 10^5 cells/well). In addition, the 2 mM sample solution 1 was diluted with the 10% FBS-containing DMEM to prepare the sample solution 1 in which the concentration of the sample 1 was 20 μM. […]
Regarding the obtained cells (cell pellet), the cell membrane permeability of the sample 1 was analyzed using a flow cytometer. […]
Using the aforementioned flow cytometer, gating based on forward scatter (FSC) and side scatter (SSC) was performed to set a gate about a cell group to be analyzed, and the fluorescence intensity was measured about the cell group in this gate. […] The fluorescence intensity was measured using a fluorescence detector FL2 of the flow cytometer (optimum detection wavelength around 543 nm) capable of detecting the fluorescence wavelength of FAM. […]

Row | Substance | MFI (median fluorescence intensity)
1 | Ac-rKKrNSKrLTrKK-FAM [Example 2] | 37.7
2 | Ac-RKKRNSKRLTRKK-FAM (Ac-RKKRNSKRLTRKK-{FAM″}) [Example 1, N-terminally acetylated peptide 1 (all L-form) with FAM fluorescent dye bonded to the C-terminus] | 14.6
3 | Ac-RkkRNSkRLTRkk-FAM [Example 3] | 27.3
